Experiments:
[1] = DRUGMATRIX: Atrial Natriuretic Factor (ANF) radioligand binding (ligand: [125I] ANF (rat)); type: cell membranes, Cavia porcellus, Dunkin-Hartley, Adrenal gland, Membrane; settings: Not Active = under 50% inhibition at 10 µM
[2] = DRUGMATRIX: Glutamate, NMDA, Agonism radioligand binding (ligand: [3H] CGP-39653); type: cell membranes, Rattus norvegicus, Wistar, Cerebral cortex, Membrane; settings: Not Active = under 50% inhibition at 10 µM
[3] = DRUGMATRIX: Calcium Channel Type L, Phenylalkylamine radioligand binding (ligand: [3H] (-)-Desmethoxyverapamil (D-888)); type: cell membranes, Rattus norvegicus, Wistar, Brain, Membrane; settings: Not Active = under 50% inhibition at 10 µM
[4] = molecular target: Delta-type opioid receptor (Homo sapiens, UniProt P41143); type: cell membranes, HEK293, Membrane; settings: hek293; also: in other assays of this panel Not Active means under 50% inhibition at 10 µM
Delta-type opioid receptor, sequence (P41143 whole entry): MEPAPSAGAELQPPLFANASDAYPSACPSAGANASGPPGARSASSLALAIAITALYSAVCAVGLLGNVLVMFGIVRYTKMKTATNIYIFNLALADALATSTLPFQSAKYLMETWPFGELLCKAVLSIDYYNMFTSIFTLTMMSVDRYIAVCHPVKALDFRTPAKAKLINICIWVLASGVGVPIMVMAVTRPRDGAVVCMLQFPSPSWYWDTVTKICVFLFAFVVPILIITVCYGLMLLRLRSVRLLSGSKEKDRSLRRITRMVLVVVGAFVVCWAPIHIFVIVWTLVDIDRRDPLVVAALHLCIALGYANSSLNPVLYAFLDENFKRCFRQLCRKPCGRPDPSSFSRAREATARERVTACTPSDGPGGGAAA

[5] = molecular target: T1, C-X-C chemokine receptor type 2 (Homo sapiens, UniProt P25025); type: cell membranes, CHO-K1, Membrane; settings: cho-k1; also: in other assays of this panel Not Active means under 50% inhibition at 10 µM
T1 sequence (P25025 whole entry): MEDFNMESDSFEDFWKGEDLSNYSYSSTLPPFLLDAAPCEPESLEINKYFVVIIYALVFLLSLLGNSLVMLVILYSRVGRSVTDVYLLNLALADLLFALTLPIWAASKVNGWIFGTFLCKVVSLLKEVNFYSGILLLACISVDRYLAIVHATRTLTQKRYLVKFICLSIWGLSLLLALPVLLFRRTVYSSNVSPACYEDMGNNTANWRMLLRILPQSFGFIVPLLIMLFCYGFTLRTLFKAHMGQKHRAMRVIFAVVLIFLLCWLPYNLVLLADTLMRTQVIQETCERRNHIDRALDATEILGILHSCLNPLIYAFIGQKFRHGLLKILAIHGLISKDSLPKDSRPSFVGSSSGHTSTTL

[6] = molecular target: T2, Nitric oxide synthase, inducible (Mus musculus, UniProt P29477); set-up: species or system Escherichia coli;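 also: inhibition of iNOS enzyme activity measured with L-arginine as substrate; in other assays of this panel Not Active means under 50% inhibition at 10 µM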
T2 sequence (P29477 whole entry): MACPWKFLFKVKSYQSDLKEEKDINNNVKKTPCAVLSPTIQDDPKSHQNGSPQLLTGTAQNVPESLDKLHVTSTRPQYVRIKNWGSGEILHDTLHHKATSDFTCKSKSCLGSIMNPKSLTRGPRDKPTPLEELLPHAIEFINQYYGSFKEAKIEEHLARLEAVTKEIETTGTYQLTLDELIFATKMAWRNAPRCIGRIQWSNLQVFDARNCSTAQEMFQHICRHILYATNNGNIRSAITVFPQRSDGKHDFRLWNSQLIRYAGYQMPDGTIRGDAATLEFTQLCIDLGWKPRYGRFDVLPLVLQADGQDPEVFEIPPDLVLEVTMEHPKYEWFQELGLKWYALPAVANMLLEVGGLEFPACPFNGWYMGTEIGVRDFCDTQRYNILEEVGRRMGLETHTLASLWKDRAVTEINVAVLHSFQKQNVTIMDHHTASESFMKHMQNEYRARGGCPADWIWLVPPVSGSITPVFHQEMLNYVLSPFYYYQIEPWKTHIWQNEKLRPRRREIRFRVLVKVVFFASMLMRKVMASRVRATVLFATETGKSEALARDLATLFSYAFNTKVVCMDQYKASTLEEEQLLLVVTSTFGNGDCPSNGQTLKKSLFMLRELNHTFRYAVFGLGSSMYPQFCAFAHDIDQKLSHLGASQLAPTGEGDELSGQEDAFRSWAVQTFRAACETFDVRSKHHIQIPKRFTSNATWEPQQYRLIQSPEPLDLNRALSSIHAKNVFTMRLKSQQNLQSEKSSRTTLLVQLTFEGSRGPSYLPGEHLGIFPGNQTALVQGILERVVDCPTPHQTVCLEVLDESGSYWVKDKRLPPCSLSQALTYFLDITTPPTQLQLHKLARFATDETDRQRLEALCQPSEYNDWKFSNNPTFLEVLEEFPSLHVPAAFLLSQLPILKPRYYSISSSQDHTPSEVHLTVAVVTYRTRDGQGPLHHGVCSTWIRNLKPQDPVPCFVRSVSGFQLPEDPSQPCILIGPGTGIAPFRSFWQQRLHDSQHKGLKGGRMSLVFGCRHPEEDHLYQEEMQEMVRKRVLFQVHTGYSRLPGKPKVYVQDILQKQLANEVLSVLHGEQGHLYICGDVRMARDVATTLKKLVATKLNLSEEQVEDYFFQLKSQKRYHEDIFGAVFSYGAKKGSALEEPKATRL

[7] = DRUGMATRIX: ATPase, Na+/K+ enzyme inhibition (substrate: ATP); type: tissue-based, Sus scrofa, Heart; settings: Not Active = under 50% inhibition at 10 µM

| Compound | IC50 [1] | Ki [1] | IC50 [2] | Ki [2] | IC50 [3] | Ki [3] | IC50 [4] | Ki [4] | IC50 [5] | Ki [5] | IC50 [6] | Ki [6] | IC50 [7] | Ki [7] | IC50 ([3]; read-out: IC50) [µM] | Ki ([3]; read-out: Ki) [µM] |
| --- | --- | --- | --- | --- | --- | --- | --- | --- | --- | --- | --- | --- | --- | --- | --- | --- |
| POVIDONE | Not Active | Not Active | Not Active | Not Active | Not Active | Not Active | Not Active | Not Active | Not Active | Not Active | Not Active | Not Active | Not Active | Not Active | – | – |
| c1ccc2c(c1)Nc1ccccc1S2 [PHENOTHIAZINE] | Not Active | Not Active | Not Active | Not Active | Not Active | Not Active | Not Active | – | Not Active | – | Not Active | – | Not Active | Not Active | – | – |
| CC[C@H]1OC(=O)[C@H](C)[C@@H](O[C@H]2C[C@@](C)(OC)[C@@H](O)[C@H](C)O2)[C@H](C)[C@@H](O[C@@H]2O[C@H](C)C[C@H](N(C)C)[C@H]2O)[C@](C)(O)C[C@@H](C)C(=O)[C@H](C)[C@@H](O)[C@]1(C)O [ERYTHROMYCIN] | Not Active | Not Active | Not Active | Not Active | Not Active | Not Active | Not Active | – | Not Active | – | Not Active | – | Not Active | Not Active | – | – |
| NS(=O)(=O)c1cc(C(=O)O)c(NCc2ccco2)cc1Cl [FUROSEMIDE] | Not Active | Not Active | Not Active | Not Active | Not Active | Not Active | Not Active | – | Not Active | – | Not Active | – | Not Active | Not Active | – | – |
| COc1cc([C@@H]2c3cc4c(cc3[C@H](O)[C@H]3COC(=O)[C@H]23)OCO4)cc(OC)c1OC [PODOFILOX] | Not Active | Not Active | Not Active | Not Active | Not Active | Not Active | Not Active | – | Not Active | – | Not Active | – | Not Active | Not Active | – | – |
| CC(N)Cc1c[nH]c2ccc(OCc3cccs3)cc12 (configuration not stated) [BW-723C86] | Not Active | Not Active | Not Active | Not Active | – | – | Not Active | – | Not Active | – | Not Active | – | Not Active | Not Active | 4.34 | 4.22 |
| O=C(O)COC(=O)Cc1ccccc1Nc1c(Cl)cccc1Cl [ACECLOFENAC] | Not Active | Not Active | Not Active | Not Active | Not Active | Not Active | Not Active | – | Not Active | – | Not Active | – | Not Active | Not Active | – | – |
| COC(=O)Nc1nc2ccc(Sc3ccccc3)cc2[nH]1 [FENBENDAZOLE] | Not Active | Not Active | Not Active | Not Active | Not Active | Not Active | Not Active | – | Not Active | – | Not Active | – | Not Active | Not Active | – | – |
| Cc1c(N)nc([C@H](CC(N)=O)NC[C@H](N)C(N)=O)nc1C(=O)N[C@H](C(=O)N[C@H](C)[C@@H](O)[C@H](C)C(=O)N[C@H](C(=O)NCCc1nc(-c2nc(C(=O)NCCC[S+](C)C)cs2)cs1)[C@@H](C)O)[C@@H](O[C@@H]1O[C@@H](CO)[C@@H](O)[C@H](O)[C@@H]1O[C@H]1O[C@H](CO)[C@@H](O)[C@H](OC(N)=O)[C@@H]1O)c1c[nH]cn1.[Br-] [BLEOMYCIN A2] | Not Active | Not Active | Not Active | Not Active | Not Active | Not Active | Not Active | – | Not Active | – | Not Active | – | Not Active | Not Active | – | – |
